Experimental findings from US8778882B2, “Agent for strengthening calcium containing tissue and use thereof” (Hayashibara Co., Ltd., priority 2002, dated 2014) are described below.

The subject of assay [1] is mouse pre-osteoblastic cell MC3T3-E1. Briefly: Alkaline phosphatase activity in mouse pre-osteoblastic cells. It is filed as cell-based. As to conditions: for activity at 20 µM: Mus musculus; for alkaline phosphatase activity in vitro: glycosides. As for the experimental part:
To increase number of osteoblastic cells having calcium-deposition activity is important for increasing bone mass. […] The activity is at low level in pre-osteoblastic cells and at high level in osteoblastic cells differentiated form the pre-osteoblastic cells. […] Since final ethanol concentration in the medium is 0.2% (v/v), α-MEM medium containing 0.2% (v/v) ethanol was prepared as a negative control. The cells were inoculated for eight days as changing the medium therewith to fresh medium with or without each sample per three days. Alkaline phosphatase activity was measured using “Alkaline Phospha B-Test Wako” (commercialized by Wako Pure Chemical Industries, Osaka, Japan) according with Kajii et al (Archives of Oral Biology, Vol. 44, pp. 233-241, (1999)). Briefly, to the above described mouse pre-osteoblastic cells washed with 1 ml of 0.25 M sucrose solution three times after removing the medium were added 0.45 ml of 50 mM carbonate salt buffer (pH9.8) containing 1 mM magnesium chloride and 50 mM sucrose and 0.05 ml of 3.4 mM disodium p-nitrophenyl phosphate in due course. The mixture was incubated at 25° C. for five minutes and admixed with 1.5 ml of 0.6N sodium hydroxide as a reaction terminator. Absorbance 405 nm of p-nitrophenol generated by alkaline phosphatase in the resulting mixture was measured, and the obtained values were used as values as alkaline phosphatase activity. […] The experiment was performed by the method according to Experiment 1 except that culture day in the medium containing each sample was three, six or nine, and concentration of each sample was 5, 10 or 20 μM. […] As a negative control, mediums containing ethanol in the above concentration were prepared for calculating relative activity to the activity of each control.

Assay [2] has the same test system. As to the kind of experiment: Calcium deposition amount by Calcium C Test Wako. It is filed as cell-based. The note with it: for activity at 20 µM: Mus musculus, MC3T3-E1; for activity at 20 µM / Relative Calcium Deposition Amount (%): flavonoid comparison, Calcium C Test Wako, relative to 0.2% (v/v) ethanol negative control; for calcium deposition in vitro: glycosides. The source says: Other flavonoid compounds than kaempferol or hesperetin were investigated where they have the same effect or not. Flavone (commercialized by Kanto Kagaku, Tokyo, Japan), apigenin (commercialized by Funakoshi, Co., Ltd., Tokyo, Japan), flavonol (commercialized by Tokyo Kasei Kogyo, Co., Ltd., Tokyo, Japan), quercetin (commercialized by Kanto Kagaku, Tokyo, Japan), kaempferol (commercialized by Funakoshi, Co., Ltd., Tokyo, Japan), rutin (commercialized by Kanto Kagaku, Tokyo, Japan), flavanone (commercialized by Kanto Kagaku, Tokyo, Japan), naringenin (commercialized by Ardrich Corporation), hesperetin (commercialized by Funakoshi, Co., Ltd., Tokyo, Japan), hesperidin (commercialized by Kanto Kagaku, Tokyo, Japan), chalcone (commercialized by Merk Corporation), fuloretin (commercialized by Sigma Corporation), catechin (commercialized by Sigma Corporation), ipriflavone (commercialized by Daito Corporation, Toyama, Japan), taxifolin (commercialized by Funakoshi, Co., Ltd., Tokyo, Japan), sulfuretin (commercialized by Funakoshi, Co., Ltd.; Tokyo, Japan), or cyanidin (commercialized by Funakoshi, Co., Ltd., Tokyo, Japan) was selected as test samples. Alkaline phosphatase activity was measured by the method of Experiment 1. Calcium deposition was measured by usual method using “Calcium C Test Wako” (commercialized by Wako Pure Chemical Industries, Osaka, Japan), briefly, cultured cells were washed with 1 ml of Dulbecco phosphate buffer saline three times after removing the medium. To the resultant was added 0.5 ml of 2N hydrochloric acid to resolve deposited calcium. To 5 μl of the resultant solution were added 0.5 ml of 0.88M monoethanolamine buffer (pH11) and 0.05 ml of 0.63 mM o-cresolphthalein complexone solution (binding to calcium ion to form chelate complex) containing 69 mM 8-quinolinol and mixed. Calcium amount per one hole of the plate was calculated by measuring absorbance 570 nm of the resultants and standardizing with a standard calcium solution. The judgement of alkaline phosphatase activity or calcium deposition amount of each sample was to calculate the relative activity or the relative calcium deposition amount to the negative control (only medium containing 0.2% (v/v) ethanol) and to compare each other.
The enhancement of calcium deposition between kaempferol and ipripfavone were compared. Test samples and their adding manner were same as Experiment 4. Calcium deposition amount was measured by usual method using “Calcium C Test Wako” (commercialized by Wako Pure Chemical Industries, Osaka, Japan); briefly, cultured cells were washed with 1 ml of Dulbecco phosphate buffer saline three times after removing the medium. To the resultant was added 0.5 ml of 2N hydrochloric acid to resolve deposited calcium. To 5 μl of the resolving solution were added 0.5 ml of 0.88M monoethanolamine buffer (pH11) and 0.05 ml of 0.63 mM o-cresolphthalein complexone solution (binding to calcium ion to form chelate complex) containing 69 mM 8-quinolinol and mixed, Calcium amount per one hole of the plate was calculated by measuring absorbance 570 nm of the resultants and standardizing with a standard calcium solution.
Kaempferol or hesperetin in combination with ipriflavone, or a kind of isoflavones, was investigated whether to enhance calcium deposition or not. Methods for preparing samples and culturing the cells were the same method described in Experiment 1 except culturing the cells for five days, Method for measuring calcium was the same method described in Experiment 3 and 5. Final ethanol concentration of the medium containing each sample was adjusted as same concentration.

The subject of the next assay is Rat Femur and Tibia. Briefly: Enhancing calcium deposition in rat femur and tibia. It is filed as in vivo. As to conditions: for calcium deposition in femur and tibia: rats, eight weeks feeding; for Calcium Content Per One Dried Bone / Dried Bone Mass: rats fed sample in high sucrose feeding stuff for eight weeks. As for the experimental part: The experiment was performed using six three-weeks-aged female Wister rats per one group. The rats were fed with high sucrose feeding stuff containing ingredients listed Table 11 (In the Table, each value means “weight %”.) and one part by weight of each test sample; hesperetin (commercialized by Funakoshi, Co., Ltd., Tokyo, Japan), quercetin (commercialized by Tokyo Kasei Kogyo, Co., Ltd., Tokyo, Japan), α-glycosyl hesperidin (product name “αG HESPERIDINE”, commercialized by Hayashibara Shoji Inc., Okayama, Japan), α-glycosyl rutin (product name “αG RUTIN P”, commercialized by Hayashibara Shoji Inc., Okayama, Japan), or ipriflavone (commercialized by Daito Corporation, Toyama, Japan) (positive control). As a negative control, rats fed with feedstuff containing one part by weight of sucrose replacing test sample were prepared. The rats were allowed to freely take water. The rats were killed after eight weeks, and then, their femurs and tibias were excised. Each femur or tibia dried at 100° C. for about six hours was measured by electric even balance for high precision analysis (product name “HA180M/12QM”, commercialized by A & D Co, Ltd., Tokyo, Japan), and then, each bone was placed into a crucible and burned in an incinerator at 950° C. for six hours. The cinerary resultant was resolved in hydrochloric solution and provided for measuring calcium amount by atomic absorption photometer. Calcium amount per one dried bone was calculated and compared each other.

Setting [3] is: MC3T3-E1, 20 mM each compound (so in the source), eight days, relative to 0.2% (v/v) ethanol negative control.
The mark [4] stands for this setting: MC3T3-E1, flavonoid comparison, method of Experiment 1, relative to 0.2% (v/v) ethanol negative control.
The mark [5] stands for this setting: 192 h, MC3T3-E1, 20 mM each compound (so in the source), eight days, relative to 0.2% (v/v) ethanol negative control.
Where [6] appears, read: flavonoid comparison, method of Experiment 1, relative to 0.2% (v/v) ethanol negative control.

For the compound `Cc1cc(=O)oc2cc(O)ccc12` [4-Methylumbelliferone], in assay [1] (setting [3]), the “Relative Alkaline Phosphatase Activity (%)” value was 96%.
In the case of `O=c1cc(-c2ccc(O)cc2)oc2cc(O)cc(O)c12` [Apigenin], the activity at 20 µM in assay [1] (setting [4]) came to 128%; in assay [2] it was 247%.
For `Cn1c(=O)c2c(ncn2C)n(C)c1=O` [Caffein, caffein], the activity at 20 µM in assay [1] (setting [5]) amounted to 100%.
For the compound `O.Oc1cc(O)c2c(c1)O[C@H](c1ccc(O)c(O)c1)[C@@H](O)C2` [Catechin], in assay [1] (setting [6]), the “Relative Alkaline Phosphatase Activity (%)” value stood at 118%. In addition, in assay [2], the “Relative Calcium Deposition Amount (%)” value turned out to be 247%.
As to `O=C(/C=C/c1ccccc1)c1ccccc1` [Chalcone], the activity at 20 µM in assay [1] (setting [4]) came to 105%; in assay [2], 104%.
As to `Oc1cc(O)c2cc(O)c(-c3ccc(O)c(O)c3)[o+]c2c1` [Cyanidin], the “Relative Alkaline Phosphatase Activity (%)” value in assay [1] (setting [6]) is 115%. In assay [2], the “Relative Calcium Deposition Amount (%)” value was 216%.
As to `O=C1CC(c2ccccc2)Oc2ccccc21` (centres unmarked) [Flavanone], the activity at 20 µM in assay [1] (setting [4]) was 109%; in assay [2], 311%.
On the same counts, the results for `O=c1cc(-c2ccccc2)oc2ccccc12` [Flavone] are 103% and 158%.
In the same order, the values of `O=c1c(O)c(-c2ccccc2)oc2ccccc12` [Flavonol] are 139% and 295%.
`CC1(C)[C@@H](O[C@H]2O[C@H](C(=O)O)[C@@H](O)[C@H](O)[C@H]2O[C@@H]2O[C@H](C(=O)O)[C@@H](O)[C@H](O)[C@H]2O)CC[C@]2(C)[C@H]3C(=O)C=C4[C@@H]5C[C@@](C)(C(=O)O)CC[C@]5(C)CC[C@@]4(C)[C@]3(C)CC[C@@H]12` [Glycyrrizinic Acid]: the “Relative Alkaline Phosphatase Activity (%)” value in assay [1] (setting [3]) is listed as 97%.
Take `COc1ccc([C@@H]2CC(=O)c3c(O)cc(O[C@@H]4O[C@H](CO[C@@H]5O[C@@H](C)[C@H](O)[C@@H](O)[C@H]5O)[C@@H](O)[C@H](O)[C@H]4O)cc3O2)cc1O` [Hesperidin]: the “enhancement of alkaline phosphatase activity, daily course (FIG. 1)” value in assay [1] (5, 10 or 20 μM, culture day three, six or nine, relative to ethanol control) was “remarkable enhancement of alkaline phosphatase activity at third day”. For the same compound, the “Relative Alkaline Phosphatase Activity (%)” value in assay [1] (setting [6]) stood at 107%. In addition, the “alkaline phosphatase activity in vitro” value in assay [1] is “did not demonstrate”. For the same compound, in the assay with Rat Femur and Tibia, the “calcium deposition in femur and tibia” value is “increase of calcium deposition content”. Moreover, in assay [2], the “Relative Calcium Deposition Amount (%)” value came to 118% and the “calcium deposition in vitro” value is reported as “did not demonstrate”.
Consider `CC(C)Oc1ccc2c(=O)c(-c3ccccc3)coc2c1` [Ipriflavone, reference compound], for which, in assay [1] (setting [6]), the “Relative Alkaline Phosphatase Activity (%)” value is listed as 114%. The “Calcium Content Per One Dried Bone” value in the assay on Rat Femur and Tibia (Femur) is 120.0 mg; in the assay with Rat Femur and Tibia (Tibia), 106.0 mg. Further, the “Dried Bone Mass” value in the assay on Rat Femur and Tibia (Femur) was 0.428 g; in the assay with Rat Femur and Tibia (Tibia), 0.338 g. The “Relative Calcium Deposition Amount (%)” value in assay [2] is 263%.
For the compound `CC1CCC(C(C)C)C(O)C1` (centres unmarked) [Menthol, menthol], the activity at 20 µM in assay [1] (setting [5]) was 95%.
For `O=C1C[C@@H](c2ccc(O)cc2)Oc2cc(O)cc(O)c21` [Naringenin], the activity at 20 µM in assay [1] (setting [4]) turned out to be 110%; in assay [2], 271%.
With `O=c1c(O)c(-c2ccc(O)c(O)c2)oc2cc(O)cc(O)c12` [Quercetin], the values for the activity at 20 µM in assay [1] (setting [4]) and in assay [2] were 120% and 118%, respectively. Besides, the “Calcium Content Per One Dried Bone” value in the assay on Rat Femur and Tibia (Femur) was 120.3 mg; in the assay on Rat Femur and Tibia (Tibia), 108.7 mg. Besides, the “Dried Bone Mass” value in the assay on Rat Femur and Tibia (Femur) is given as 0.456 g; in the assay on Rat Femur and Tibia (Tibia), 0.352 g.
On to `C[C@@H]1O[C@@H](OC[C@H]2O[C@@H](Oc3c(-c4ccc(O)c(O)c4)oc4cc(O)cc(O)c4c3=O)[C@H](O)[C@@H](O)[C@@H]2O)[C@H](O)[C@H](O)[C@H]1O` [Rutin], for which the “Relative Alkaline Phosphatase Activity (%)” value in assay [1] (setting [6]) was 109%. In assay [2], the “Relative Calcium Deposition Amount (%)” value worked out at 74%.
On the same counts, the results for `O=C1/C(=C/c2ccc(O)c(O)c2)Oc2cc(O)ccc21` [Sulfuretin] are 126% and 157%.
For the compound `O=C1c2c(O)cc(O)cc2O[C@H](c2ccc(O)c(O)c2)[C@H]1O` [Taxifolin], the activity at 20 µM in assay [1] (setting [4]) came out at 98%; in assay [2], 234%.
With `COc1cc(C=O)ccc1O` [Vanillin, vanillin], in assay [1] (setting [5]), the activity at 20 µM came to 89%.
Same read-out and setting: the figure for `CC1=C(/C=C/C(C)=C/C=C/C(C)=C/C=C/C=C(C)/C=C/C=C(C)/C=C/C2=C(C)CCCC2(C)C)C(C)(C)CCC1` [β-Carotene, β-carotene] is 81%.
As to Phloretin, the “Relative Alkaline Phosphatase Activity (%)” value in assay [1] (setting [6]) is given as 109%. Further, the “Relative Calcium Deposition Amount (%)” value in assay [2] is given as 238%.
With tocopherol, the “Relative Alkaline Phosphatase Activity (%)” value in assay [1] (setting [3]) was 100%.
For the compound α-glycosyl hesperidin, the “alkaline phosphatase activity in vitro” value in assay [1] was “did not demonstrate”. For the same compound, in the assay on Rat Femur and Tibia (Femur), the “Calcium Content Per One Dried Bone” value is reported as 126.9 mg and the “Dried Bone Mass” value is reported as 0.454 g. In the assay with Rat Femur and Tibia (Tibia), the “Calcium Content Per One Dried Bone” value is on record as 109.5 mg and the “Dried Bone Mass” value is on record as 0.349 g. Also, the “calcium deposition in femur and tibia” value with Rat Femur and Tibia is reported as “increase of calcium deposition content”. Besides, the “calcium deposition in vitro” value in assay [2] is “did not demonstrate”.
